Experimental data as given in article PMC5308254, “Bioactivity of Natural and Engineered Antimicrobial Peptides from Venom of the Scorpions Urodacus yaschenkoi and U. manicatus” (Toxins, 2017).
No end group written: not given here.

Columns and labels:
[1] = tested on: Micrococcus luteus (DSM20030); test: Growth inhibition assay (MIC), M. luteus; format: cell-based; conditions: 384-well plates, LB, 30 °C, peptide 0.015–250 µM; MIC = concentration at which growth was totally inhibited; average of n ≥ 3; dash = no inhibition
Description: (§1) The minimal inhibitory concentration (MIC) of each AMPs was determined against the Gram-positive bacteria Listeria monocytogenes (DSM20600), L. grayi (DSM20601), L. fleischmannii (DSM24998), Staphylococcus aureus (DSM2569) and Micrococcus luteus (DSM20030), and the Gram-negative species Escherichia coli (D31) and Pseudomonas aeruginosa (DSM50071). The scorpion peptides were prepared at concentrations of 0.015–250 μM. The assays were carried out in 384-well plates (Greiner Bio One, Frickenhausen, Germany) using Brain Heart Infusion Broth (BHIB) medium for Listeria spp., Tryptic Soy Broth (TSB) for S. aureus, and lysogeny broth (LB) for the others. The bacteria were cultivated overnight at either 37 °C (Listeria spp., S. aureus, E. coli and P. aeruginosa) or 30 °C (M. luteus) and subcultured in fresh media before the growth inhibition assays. Growth inhibition was measured as previously described.

[2] = tested on: Escherichia coli (D31); test: Growth inhibition assay (MIC), E. coli; format: cell-based; conditions: 384-well plates, LB, 37 °C, peptide 0.015–250 µM; growth totally inhibited; average of n ≥ 3; dash = no inhibition
Description: as §1

[3] = tested on: L. grayi (DSM20601); test: Growth inhibition assay (MIC), L. grayi; format: cell-based, Listeria grayi; conditions: 384-well plates, BHIB, 37 °C, peptide 0.015–250 µM; growth totally inhibited; average of n ≥ 3; dash = no inhibition
Description: as §1

[4] = tested on: L. fleischmannii (DSM24998); test: Growth inhibition assay (MIC), L. fleischmannii; format: cell-based, Listeria fleischmannii; conditions: 384-well plates, BHIB, 37 °C, peptide 0.015–250 µM; growth totally inhibited; average of n ≥ 3; dash = no inhibition
Description: as §1

[5] = tested on: Listeria monocytogenes (DSM20600); test: Growth inhibition assay (MIC), L. monocytogenes; format: cell-based; conditions: 384-well plates, BHIB, 37 °C, peptide 0.015–250 µM; growth totally inhibited; average of n ≥ 3; dash = no inhibition
Description: as §1

[6] = tested on: pig erythrocytes; test: Hemolytic activity on pig erythrocytes; format: cell-based; conditions: for percentage of hemolysis: 100 µM peptide (highest tested), 10% Triton X-100 = 100% hemolysis; for percentage of hemolysis / HC10 (hemolytic concentration) / HC90 (hemolytic concentration) / HC50 (hemolytic concentration): 1 h at 37 °C; for HC10 (hemolytic concentration) / HC90 (hemolytic concentration) / HC50 (hemolytic concentration): 6.25–100 µM, absorbance 570 nm, non-linear fit; for HC10 (hemolytic concentration) / HC90 (hemolytic concentration): n ≥ 3; for HC50 (hemolytic concentration): n ≥ 3, n.c. (100) = not convergent at 100 µM
Description: The hemolytic activity of each AMP was determined using pig erythrocytes. Serial dilutions (6.25–100 µM) of each AMP were prepared, and after incubation for 1 h at 37 °C the cells were centrifuged and the absorbance of the supernatant was measured at 570 nm using an Eon Microplate Spectrophotometer (BioTek Instruments, Winooski, VT, USA). Three independent experiments were carried out for each concentration in triplicate. PBS and 10% Triton X–100 were used as negative and positive controls, respectively. The percentage hemolysis was calculated using the formula 100((Apeptide–APBS)/(Atriton–APBS)). The AMP concentration causing 50% hemolysis (HC50) of the pig erythrocytes was determined by non-linear regression with the data fitted to the logistical sigmoidal equation, using GraphPad Prism v5.0 (GraphPad Software, San Diego, CA, USA) (Figure S2).

[7] = Cytotoxicity, alamarBlue, BHK-21 cells; format: cell-based, hamster; conditions: hamster, 2 h at 37 °C, 0.1–100 µM, alamarBlue fluorescence, non-linear fit, concentration reducing viability by 50%, n ≥ 3, read-out: EC50 (effective cytotoxic concentration)
Description: (§2) Cytotoxicity was evaluated using the baby hamster kidney cell line (BHK-21) included in F2H®-Kit Basic (Chromotek, Planegg-Martinsried, Germany). The BHK-21 cells were grown in 25-cm^2 cell culture flasks (Greiner Bio One, Frickenhausen, Germany) containing Dulbecco’s Modified Eagle’s Medium (DMEM) supplemented with 4.5 g/L glucose, 110 mg/L sodium pyruvate and L-glutamine, and 10% fetal bovine serum (FBS), and were maintained in an NU-5810 incubator (ibs tecnomara, Fernwald, Germany) at 37 °C with a 5% CO2 atmosphere. The cells were subcultured at ~90% confluence by detaching with 0.25% trypsin and 0.03% EDTA (Sigma-Aldrich, St Louis, MO, USA). The AMPs were dissolved in water and diluted to final concentrations of 0.1, 1, 10 and 100 µM in DMEM.
(§3) BHK-21 cells were prepared and tested as previously described. Confluent cells were detached, counted and seeded at a concentration of 8.5 × 10^4 cell/mL in a 96-well culture plate (Greiner Bio One-Cell Star) 48 h before each experiment. The cells were rinsed with 100 µL PBS before adding 100 µL of the AMP solution and incubating for 2 h at 37 °C. The AMP solution was then removed and the cells were rinsed again with PBS before staining with 10% v/v alamarBlue™ Dye (Thermo Fisher Scientific, Schwerte, Germany) in DMEM for 1 h. The fluorescence of the metabolized alamarBlue™ Dye was measured in an Eon microplate reader using excitation and emission filters of 528 and 590 nm, respectively. DMEM and cells exposed to DMEM without AMPs were included as a blank reference and negative control, respectively. Four independent experiments were carried out for each AMP concentration in triplicate. To assess the percentage of viable cells compared to the control, the data were analyzed with GraphPad Prism v5.0 software using non-linear regression to fit the curve (Figure S2). The EC50 was reported as the AMP concentration that reduces cell viability by 50%.

[8] = tested on: baby hamster kidney cells (BHK21); test: Cytotoxicity, alamarBlue, BHK-21 cells; format: cell-based; conditions: 2 h at 37 °C, 0.1–100 µM, alamarBlue fluorescence, non-linear fit, n ≥ 3
Description: as §2, §3

[9] = tested on: Staphylococcus aureus (DSM2569); test: Growth inhibition assay (MIC), S. aureus; format: cell-based; conditions: 384-well plates, TSB, 37 °C, peptide 0.015–250 µM; growth totally inhibited; average of n ≥ 3; dash = no inhibition
Description: as §1

Row | Substance | MIC M. luteus [1] | MIC E. coli [2] | MIC L. grayi [3] | MIC L. fleischmannii [4] | MIC L. monocytogenes [5] | percentage of hemolysis [6] | HC10 (hemolytic concentration) [6] | HC90 (hemolytic concentration) [6] | HC50 (hemolytic concentration) [6] | CC50 at 2 h [7] | EC10 (effective cytotoxic concentration) [8] | EC90 (effective cytotoxic concentration) [8] | MIC S. aureus [9] | hemolytic activity (in words) [6]
1 | GFWGKLLEGVKKAI-NH2 [D5] | 8 µM | 15 µM | 8 µM | 15 µM | 15 µM | ~ 10% | 110.86 µM | 24,141.72 µM | 1636 µM | 67.6 µM | 2.50 µM | 202.90 µM | – | –
2 | IFKAIWSGIKSLF-NH2 [Um5] | 2 µM | 15 µM | 2 µM | 2 µM | 2 µM | – | 11.944 µM | 293.90 µM | 59.25 µM | 9.71 µM | 0.36 µM | 29.12 µM | – | –
3 | FFSALLSGIKSLF-NH2 [Um4] | 8 µM | 8 µM | 15 µM | 4 µM | 8 µM | – | – | – | – | 87 µM | 3.22 µM | 261 µM | 15 µM | –
4 | FPFLLSLIPSAISAIKRL-NH2 [Uy234] | 2 µM | – | 4 µM | – | 2 µM | – | 55.14 µM | 198.04 µM | 104.50 µM | 6.29 µM | 0.23 µM | 18.86 µM | – | –
5 | ISQSDAILSAIWSGIKSLF-NH2 [Um2] | 4 µM | – | – | – | – | – | 2.36 µM | 7033.22 µM | 129 µM | 15.7 µM | 0.58 µM | 47.12 µM | – | –
6 | ILSAIWSGIKSLF-NH2 [UyCT3] | 4 µM | 8 µM | 8 µM | 4 µM | 4 µM | – | 15.78 µM | 214.22 µM | 58.15 µM | 15.4 µM | 0.57 µM | 46.12 µM | – | –
7 | FPFLKLSLKIPKSAIKSAIKRL-NH2 [D10] | 0.25 µM | 8 µM | 8 µM | 30 µM | 30 µM | ~ 10% | 149.75 µM | 19,894.17 µM | 1726 µM | 141 µM | 5.24 µM | 424.30 µM | – | –
8 | ILSAIWSGIKGLL-NH2 [Uy17] | 15 µM | – | – | – | 15 µM | – | 26.65 µM | 718.55 µM | 138.40 µM | 73.6 µM | 2.73 µM | 220.80 µM | 30 µM | –
9 | IFGAIWSGIKSLF-NH2 [D1] | 4 µM | 8 µM | 8 µM | 4 µM | 4 µM | – | 15.50 µM | 148.51 µM | 48 µM | 18.6 µM | 0.69 µM | 55.75 µM | – | –
10 | GFWGKLWKPVKKAI-NH2 [D4] | 2 µM | – | 8 µM | 15 µM | 30 µM | – | – | – | – | 980 µM | 36.30 µM | 2940 µM | – | no hemolytic activity
11 | FLSTIWNGIKSLF-NH2 [D2] | 4 µM | – | – | 15 µM | 15 µM | 64% | 2.94 µM | 200.83 µM | 24.48 µM | 377 µM | 13.95 µM | 1130 µM | 8 µM | –
